Experimental data as given in patent publication US12630547B2, “RAS protein degraders, pharmaceutical compositions thereof, and their therapeutic applications” (BioTheryX, Inc., priority 2019, dated 2026).

What was measured:
Format in all cases: cell-based
[1] = tested on: H358 cells; test: Cell viability assay (CELLTITER-GLO), H358 cells; conditions: Table 4; 3 days
In short: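 H358 cells (RPMI 1640, 10% FBS), 4,000 per well, exposed to compound for 3 days at 37 °C, 5% CO2; viability by CellTiter-Glo luminescence. Single-dose viability as % DMSO at 10 or 1 μM, binned A (<10%) to D (≥50%); IC50 binned A (≤1 μM) to D (>10 μM).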

[2] = tested on: H23 cells; test: Cell viability assay (CELLTITER-GLO), H23 cells; conditions: Table 4; 3 days
In short: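 H23 cells in RPMI 1640 with 10% FBS, 4,000 cells/well, exposed to compound or DMSO for 3 days at 37° C, 5% CO2. Viability read by CellTiter-Glo luminescence after 10 min. IC50 reported in potency bins.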

[3] = tested on: MOLM-13 cells; test: Cell viability assay (CELLTITER-GLO), MOLM-13 cells; conditions: Homo sapiens, MOLM-13, 72 h; Table 2; compound at 10 μM, 3 days; read-out: Effect on MOLM-13 cell viability (% DMSO)
In short: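 MV-4-11 and MOLM-13 cells in RPMI 1640/10% FBS were seeded at 4,000 cells/well and exposed to compound (10 μM or 1 μM) or DMSO for 3 days at 37 °C, 5% CO2. CellTiter-Glo luminescence gave viability as % DMSO, binned into ranges A (<10%) through D (≥50%).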

SMILES	Inhibition of H358 cells, IC50 (class) [1]	Inhibition of H23 cells, IC50 (class) [2]	viability at 10 µM [3]
C=CC(=O)N1CCN(c2nc(OCCCCCCCN3CCC(c4cc(F)cc5c4CN(C4CCC(=O)NC4=O)C5=O)CC3)nc3c2CCN(c2cc(O)cc4ccccc24)C3)CC1 (stereo not drawn) [Compound 75, 3-(4-(1-(7-((4-(4-Acryloylpiperazin-1-yl)-7-(3-hydroxynaphthalen-1-yl)-5,6,7,8-tetrahydropyrido[3,4-d]pyrimidin-2-yl)oxy)heptyl)piperidin-4-yl)-6-fluoro-1-oxoisoindolin-2-yl)piperidine-2,6-dione]	C′	B′	25 to 50%
CCS(=O)(=O)N1CCN(c2ncnc3c(F)c(-c4c(F)cccc4OCCCCCCCN4CCC(c5cc(F)cc6c5CN(C5CCC(=O)NC5=O)C6=O)CC4)c(Cl)cc23)CC1 (stereo not drawn) [Compound 59, 3-(4-(1-(7-(2-(6-Chloro-4-(4-(ethylsulfonyl)piperazin-1-yl)-8-fluoroquinazolin-7-yl)-3-fluorophenoxy)heptyl)piperidin-4-yl)-6-fluoro-1-oxoisoindolin-2-yl)piperidine-2,6-dione]	B′	B′	< 10%
O=C1CCC(N2Cc3c(cc(F)cc3C3CCN(CCCCCCCOc4cccc(F)c4-c4c(Cl)cc5c(N6CCN(C(=O)c7cnc[nH]7)CC6)ncnc5c4F)CC3)C2=O)C(=O)N1 (stereo not drawn) [Compound 41, 3-(4-(1-(7-(2-(4-(4-(1H-Imidazole-5-carbonyl)piperazin-1-yl)-6-chloro-8-fluoroquinazolin-7-yl)-3-fluorophenoxy)heptyl)piperidin-4-yl)-6-fluoro-1-oxoisoindolin-2-yl)piperidine-2,6-dione]	B′	B′	< 10%
CCC(=O)N1CC(N2Cc3ccc(-c4cc(O)cc5ccccc45)cc3N(CCNCCCCCCCN3CCC(c4cc(F)cc5c4CN(C4CCC(=O)NC4=O)C5=O)CC3)C2=O)C1 (stereo not drawn) [Compound 46, 3-(6-Fluoro-4-(1-(7-((2-(7-(3-hydroxynaphthalen-1-yl)-2-oxo-3-(1-propionylazetidin-3-yl)-3,4-dihydroquinazolin-1(2H)-yl)ethyl)amino)heptyl)piperidin-4-yl)-1-oxoisoindolin-2-yl)piperidine-2,6-dione]	D′	D′	≥ 50%
C=CC(=O)N1CCN(c2nc(OC[C@@H]3CCCN3C)nc3c(F)c(-c4c(F)cccc4OCCCCCCCN4CCC(c5cc(F)cc6c5CN(C5CCC(=O)NC5=O)C6=O)CC4)c(Cl)cc23)CC1 (stereo partly drawn) [Compound 88, 3-(4-(1-(7-(2-(4-(4-Acryloylpiperazin-1-yl)-6-chloro-8-fluoro-2-(((S)-1-methylpyrrolidin-2-yl)methoxy)quinazolin-7-yl)-3-fluorophenoxy)heptyl)piperidin-4-yl)-6-fluoro-1-oxoisoindolin-2-yl)piperidine-2,6-dione]	A′	B′	< 10%
C=CC(=O)N1CCN(c2ncnc3c(F)c(-c4c(F)cccc4OCCCCCCCNCc4ccc(OCc5scc6c5CN([C@H]5CCC(=O)NC5=O)C6=O)cc4)c(Cl)cc23)CC1 [Compound 24, (3S)-3-(1-((4-(((7-(2-(4-(4-Acryloylpiperazin-1-yl)-6-chloro-8-fluoroquinazolin-7-yl)-3-fluorophenoxy)heptyl)amino)methyl)phenoxy)methyl)-4-oxo-4H-thieno[3,4-c]pyrrol-5(6H)-yl)piperidine-2,6-dione]	B′	B′	< 10%

The next lines start with results.

Inhibition of H358 cells, IC50 (class) [1]	SMILES	Inhibition of H23 cells, IC50 (class) [2]	viability at 10 µM [3]
A′	C=C(Cl)C(=O)N1CCN(c2nc(OC[C@@H]3CCCN3C)nc3c(F)c(-c4c(F)cccc4OCCCCCCCN4CCC(c5cc(F)cc6c5CN(C5CCC(=O)NC5=O)C6=O)CC4)c(Cl)cc23)CC1 (stereo partly drawn) [Compound 108, 3-(4-(1-(7-(2-(6-Chloro-4-(4-(2-chloroacryloyl)piperazin-1-yl)-8-fluoro-2-(((S)-1-methylpyrrolidin-2-yl)methoxy)quinazolin-7-yl)-3-fluorophenoxy)heptyl)piperidin-4-yl)-6-fluoro-1-oxoisoindolin-2-yl)piperidine-2,6-dione]	A′	< 10%
A′	C=C(Cl)C(=O)N1CCN(c2ncnc3c(F)c(-c4c(F)cccc4OCCCCCCCN4CCC(c5cc(F)cc6c5CN(C5CCC(=O)NC5=O)C6=O)CC4)c(Cl)cc23)C[C@H]1CC#N (stereo partly drawn) [Compound 102, 2-((2R)-4-(6-Chloro-7-(2-((7-(4-(2-(2,6-dioxopiperidin-3-yl)-6-fluoro-1-oxoisoindolin-4-yl)piperidin-1-yl)heptyl)oxy)-6-fluorophenyl)-8-fluoroquinazolin-4-yl)-1-(2-chloroacryloyl)-piperazin-2-yl)acetonitrile]	A′	< 10%
A′	C=C(Cl)C(=O)N1CCN(c2nc(OC[C@@H]3CCCN3C)nc3c(F)c(-c4c(F)cccc4OCCCCCCCN4CCC(c5cc(F)cc6c5CN(C5CCC(=O)NC5=O)C6=O)CC4)c(Cl)cc23)C[C@H]1CC#N (stereo partly drawn) [Compound 128, 2-((2R)-4-(6-Chloro-7-(2-((7-(4-(2-(2,6-dioxopiperidin-3-yl)-6-fluoro-1-oxoisoindolin-4-yl)piperidin-1-yl)heptyl)oxy)-6-fluorophenyl)-8-fluoro-2-(((S)-1-methylpyrrolidin-2-yl)methoxy)quinazolin-4-yl)-1-(2-chloroacryloyl)piperazin-2-yl)acetonitrile]	A′	< 10%
B′	C=CC(=O)N1CCN(c2ncnc3c(F)c(-c4c(F)cccc4OCCCCCCCN4CCC(c5cc6c(cc5F)C(=O)N(C5CCC(=O)NC5=O)C6)CC4)c(Cl)cc23)CC1 (stereo not drawn) [Compound 94, 3-(5-(1-(7-(2-(4-(4-Acryloylpiperazin-1-yl)-6-chloro-8-fluoroquinazolin-7-yl)-3-fluorophenoxy)heptyl)piperidin-4-yl)-6-fluoro-1-oxoisoindolin-2-yl)piperidine-2,6-dione]	B′	< 10%
B′	CCC(=O)N1CCN(c2ncnc3c(F)c(-c4c(F)cccc4OCCOCc4ccc(COCCN5CCC(c6cc(F)cc7c6CN(C6CCC(=O)NC6=O)C7=O)CC5)cc4)c(Cl)cc23)CC1 (stereo not drawn) [Compound 109, 3-(4-(1-(2-((4-((2-(2-(6-Chloro-8-fluoro-4-(4-propionylpiperazin-1-yl)quinazolin-7-yl)-3-fluorophenoxy)ethoxy)methyl)benzyl)oxy)ethyl)piperidin-4-yl)-6-fluoro-1-oxoisoindolin-2-yl)piperidine-2,6-dione]	B′	< 10%
B′	CCC(=O)N1CCN(c2ncnc3c(F)c(-c4cc(OCCCCCCCN5CCC(c6cc(F)cc7c6CN(C6CCC(=O)NC6=O)C7=O)CC5)ccc4F)c(Cl)cc23)CC1 (stereo not drawn) [Compound 91, 3-(4-(1-(7-(3-(6-Chloro-8-fluoro-4-(4-propionylpiperazin-1-yl)quinazolin-7-yl)-4-fluorophenoxy)heptyl)piperidin-4-yl)-6-fluoro-1-oxoisoindolin-2-yl)piperidine-2,6-dione]	B′	< 10%
